Entries after “also recorded” stand apart in the source; their conditions may differ. Where two headings read alike, the source gives them in different places.

The source of these data is US5776957A, “Nornicotine enantiomers for use as a treatment for dopamine related conditions and disease states” (The University of Kentucky Research Foundation, priority 1996, dated 1998).

For data set [1] the following is noted: cited from earlier work.
Data set [2] can be described thus: Amphetamine drug discrimination (substitution tests). Format: in vivo, rat. As to the method:
Rats were trained in on two-lever food-reinforced operant tasks to discriminate amphetamine (1 mg/kg) from saline. After discrimination training stabilized, test doses of amphetamine (0.0625-2.0 mg/kg), nicotine (0.1-1.0 mg/kg) or nornicotine (1-10 mg/kg) were assessed for their ability to substitute for the amphetamine training dose during brief test sessions in which food reinforcement was withheld.
Nine male Sprague-Hawley rats were obtained from Harlan Industries (Indianapolis, Ind.) and were caged individually with water continuously available. Food access was restricted in order to maintain body weights at approximately 80% of free-feeding weight. Prior to the start of the experiment, all rats received a single injection of amphetamine (1 mg.kg, IP) as part of an unrelated experiment. Apparatus Six operant chambers (ENV-001, Med Associates, St. Albans, Vt.) enclosed in a sound attenuating environment were used. Located in the bottom center of the front panel in each chamber was a 5×4.-cm opening to a recessed food tray. Two metal response levers were located on the front panel, one on each side of the food tray. The center of each lever was mounted 7.3 cm from the grid floor. A 28-Vcue light, 3 cm in diameter, was centered 6 cm above each lever. A personal computer, interfaced to the chamber with Med Associates equipment, controlled the experimental sessions and collected data.
The general procedures utilized to establish amphetamine discrimination were similar to those outlined previously (13). Briefly, rats were first given access to food pellets (45 mg sucrose pellet, Noyes Co., Lancaster, N.H.) dispensed noncontingently into the food tray with both levers present. One lever was then removed and the rat was shaped to depress the other lever for food reinforcement. Following this, rats received 15-min daily sessions in which the lever (left or right) available for food reinforcement was alternated daily. […] The start of each session was signaled by the onset of both cue lights mounted above the levers, and the termination of each session was signaled by the offset of these lights. This training phase was continued until the rat earned 20 reinforces on an FR25 schedule for two days.
Amphetamine discrimination training was conducted Monday through Friday. For this training, both levers were mounted in the chamber. Amphetamine (A; 1 mg/kg) or saline (S), was injected IP 15 min prior to the start of the session, with the order of injections being either AASS or SSAA. The left lever was designated as the amphetamine-correct lever for 4 rats, while the right lever was amphetamine -correct for 5 rats. On Monday, Wednesday and Friday, injection-appropriate responding was food-reinforcedon an FR25 schedule for the entire 15-min session. However, 2-min extinction periods were instituted at the beginning of sessions on Tuesday and Thursday (one amphetamine and one saline test per week) to assess the control of amphetamine (or saline) over responding. […] During the remaining 13 min of these sessions, contingent reinforcement for injection-appropriate responding was reinstated. This phase of training was continued until the rat completed the first FR25 on the correct lever for 10 consecutive sessions and also completed 80% or more responses on the injection-appropriate lever during 4 consecutive extinction periods.
The substitution phase was identical to the previously described amphetamine discrimination phase, except for the Friday session, which was decreased to a 4-min extinction session with no food available.

Data set [3] can be described thus: NIC and metabolites in rat brain after s.c. injection of radiolabelled NIC. Format: in vivo. The text has this: NIC metabolism studies involving HPLRC analysis invariably utilize NIC with a radiolabel (i.e., [^3 H], [^14 C] or [^11 C]) incorporated in the methyl group. However N-demethylated NIC metabolites (norNIC and norCOT) cannot be detected after injection of such radionuclides, since the label is lost in the formation of these metabolites. NIC and four NIC metabolites have recently been detected in rat brain 4 hr after s.c. injection of [2'-^14 C]NIC (FIG. 3, Table I). Three of these metabolites have been identified as COT, norNIC and norCOT. A fourth minor metabolite (Peak B) has not been completely identified but appears to be an N-demethylated metabolite, since it is not detected in the [^3 H-N-methyl]NIC studies.
COT, and therefore, is unlikely to originate from COT N-demethylation. 3-HydroxyCOT and its glucuronide conjugate were not detected as metabolites of either NIC or COT in brain, even though these are major biotransformation products in the periphery (Crooks, 1993).
It appears that NIC metabolites which accumulate with a time course that correlates with the development of behavioral sensitization to NIC have a role in eliciting sensitization to NIC. The inventors have detected NIC, COT, norNIC and norCOT in brain 4 hr following acute s.c. injection of (±)[2'-^14 C]NIC. S(-) [^3 H] -N-methyl]NIC is unsuitable for studying brain metabolism of NIC, since nor-metabolites (i.e., demethylated metabolites) cannot be detected due to [^3 H]-loss during metabolism (Crooks et al., 1995b, AP 7). Thus, commercially available (±)[2'-^14 C]NIC was used to determine NIC metabolites present in brain. This form of radiolabelled NIC provides a metabolically stable [^14 C]-label which allows measurement of all potential NIC metabolites.
A second "metabolite" (Peak A, FIG. 2) was also detected at each time point and most likely results from a combination of metabolic cleavage of the N-methyl group and dissociated-[^3 H], i e, Peak A represents an oxidized 1-carbon unit and indicates the extent of NIC N-demethylation. Note, in our subsequent studies with [2'-^14 C]NIC, Peak A was not observed, which is consistent with our interpretation of the results (Table 1).

For data set [4], the system named is [3H]DA-preloaded rat striatal slices (nicotinic receptors). Nature of the data set: [3H]overflow (DA release) from [3H]DA-preloaded rat striatal slices. Format: cell-based. How it is done:
In vitro pharmacological effects of NIC are generally investigated using either striatal slices or synaptosome preparations preloaded with [^3 H] DA. NIC-evoked [^3 H]overflow is obtained routinely in the presence of nomifensine (10 μM; a DA uptake inhibitor) and for pargyline (10 μM, a monoamine oxidase inhibitor) in the superfusion buffer, such that [^3 H]overflow represents primarily [^3 H]DA rather than [H]DA-metabolites (Zumstein et al., 1981, Hoffmann and Cubeddu, 1982, Dwoskin and Zahniser, 1986, Rapier et al., 1988), and for this reason, [^3 H]overflow also will be referred to as [^3 H] DA release in the proposal.
The present studies use striatal slices superfused with various concentrations of NIC or norNIC for prolonged periods.
FIG. 4. […] Insets illustrate the response to the low concentration range. […] NIC exposure indicated by the bar under time course. Note: 1-min sample collection period. […] N=4 rats.
Rat striatal slices were depolarized with 10 μM NIC, 20 mM K+or 1 Hz, 60 pulses or 3 Hz, 180 pulses electrical field stimulation. […] N=4.
MEC or DHβE was included in the superfusion buffer for 60 min prior to the addition of NIC, and superfusion continued for 60 min in the presence of NIC+antagonist.

The test system of data set [5] is mouse striatal synaptosomes. To be noted: Grady et al., 1992, cited from earlier work.
The mark [6] stands for this setting: rat brain, 4 hrs after s.c. injection, Table 1, footnote e.
The mark [7] stands for this setting: rat brain, 4 hrs after s.c. injection, Table 1, footnote f.

Consider `CC(N)Cc1ccccc1` (stereo not drawn) [amphetamine, d-Amphetamine], for which, in data set [1], the “cross-sensitization between nicotine and amphetamine” value was “has not been observed”. In data set [2] (1 and 2 mg/kg), the “substitution for amphetamine training dose” value is “substituting fully; also recorded: substituted fully”. The amphetamine-appropriate responding result in data set [2] (1 and 2 mg/kg IP, 15 min) is “greater than 80%”. Besides, in data set [2] (15 min), the “total number of lever presses” value is recorded as “dose-related decrease in total number of lever presses”.

Consider `CN1CCC[14CH]1c1cccnc1` (racemic) [[^14 C-2']-NIC], for which, in data set [3] (setting [6]), the “Percent of Total Radiolabel: COT” value is 60.8 ± 0.63%, the “Percent of Total Radiolabel: NIC” value was 24.2 ± 2.94%, the “Percent of Total Radiolabel: Peak A” value is recorded as 0.0 ± 0.0% and the “Percent of Total Radiolabel: Peak B” value amounted to 0.0 ± 0.0%. For the same compound, the “Percent of Total Radiolabel: norNIC” value in data set [3] (setting [6]) was 15.1 ± 2.54%. Also, in data set [3] (setting [7]), the “Percent of Total Radiolabel: COT” value was 62.9 ± 5.27%, the “Percent of Total Radiolabel: NIC” value turned out to be 14.2 ± 3.30%, the “Percent of Total Radiolabel: Peak A” value is recorded as 0.0 ± 0.0% and the “Percent of Total Radiolabel: Peak B” value was 2.33 ± 0.12%. Moreover, in data set [3] (setting [7]), the “Percent of Total Radiolabel: norCOT” value is 4.15 ± 0.48% and the “Percent of Total Radiolabel: norNIC” value was 16.5 ± 2.04%.

Consider `CCN1CCC[C@H]1CNC(=O)c1c(O)c(Cl)cc(Cl)c1OC` [raclopride], for which the “effect on overflow evoked by 1 or 3 Hz stimulation” value in data set [4] (1 μM, electrical field stimulation) is listed as “increases overflow”.

As to `c1cncc(C2CCCN2)c1` (racemic) [(±) norNIC], the “evoked [3H]overflow / [3H]DA release” value in data set [5] is on record as “concentration dependent increase”; in data set [5] (listed as (+) nornicotine), “concentration-dependent increase”.

On to `CN1C(=O)C(O)CC1c1cccnc1` (stereo not shown) [3-HydroxyCOT], for which the “presence as metabolite in brain” value in data set [3] (rat, in vivo, sc) is “not detected”.

For the compound `O=C1CCC(c2cccnc2)N1` (stereo not shown) [NorCOT, norcotinine], the “presence as metabolite in brain” value in data set [3] (rat brain, after s.c. radiolabelled NIC) is “minor CNS metabolite of NIC”.

Take `CO[C@H]1CC=C2CCN3CCC4=C(CC(=O)OC4)[C@]23C1` [DHβE, dihydro-β-erythroidine]: the “inhibition of NIC-evoked [3H]overflow” value in data set [4] (10 μM NIC, concentration-dependent) is reported as “robustly inhibited”. The “effect on [3H]DA release itself” value in data set [4] (100 μM) was “evoked the release of [^3 H]DA itself”. The results for the “inhibition of norNIC-evoked [3H]overflow” value in data set [4] (high concentrations (100 μM-3 mM) of norNIC) and in data set [4] (low concentrations (<100 μM) of norNIC) were “ineffective in inhibiting” and “effectively inhibited”, respectively. Besides, the “mode of antagonism of norNIC response” value in data set [4] (norNIC concentration-response curve) is on record as “competitive”.
